According to patent US20240002326A1, “COMPOUNDS AND USE THEREOF IN METHODS OF TREATMENT” (The University of Queensland, priority 2016, published 2024):

Experiments:
full-length mouse SOX18 = full-length mouse SOX18 (Mus musculus (Mouse), UniProt P43680); assay: FP DNA-binding competition assay, full-length SOX18; settings: full-length mouse SOX18, Prox1-DNA probe, read-out: FP IC50 ± SD
Protocol: Full-length mouse SOX18. A N-terminally tagged mouse HIS-GST-SOX18 was recombinantly expressed in Sf9 cells, purified on GST resin (GE Healthcare Life Sciences, Sweden) and eluted in Tris buffer (50 mM Tris, 500 mM NaCl, 10 mM reduced glutathione, pH 8.0). cDNA clone of mouse Sox18 was PCR amplified and cloned into the pOPIN-GST vector, to generate N-terminally tagged HIS-GST-SOX18. A sequence verified construct was co-transfected with flashBACULTRA (Oxford Expression Technologies, Oxford, United Kingdom) baculovirus DNA onto Spodoptera frugiperda Sf9 cells to obtain recombinantly expressed HIS-GST-SOX18. High Five cells (BTI-TN-5B1-4) in Sf-900™ II serum-free medium were infected at cell density of 1.5×10^6 cells/mL with a multiplicity of infection (MOI) of 5 PFU/cell, and incubated at 21° C. for 144 h before harvest. The cell pellet from 100 mL of expression culture was resuspended in 30 mL of phosphate lysis buffer (50 mM sodium phosphate, 500 mM sodium chloride, 1% Triton X-100, 2 mM magnesium chloride, one tablet of cOmplete Protease Inhibitor Cocktail, pH 7.5) and sonicated on ice for 20 s. The cell lysate was centrifuged at 17,000×g for 40 min at 4° C. Supernatant was incubated with Benzonase Nuclease (Merck Millipore) for 1 h at room temperature for DNA degradation, before being mixed with 500 μL GST resin (GE Healthcare Life Sciences, Sweden) and incubated on a rotating wheel at room temperature for 1 h. The sample was centrifuged at 500×g for 1 min to remove unbound protein in the supernatant. The resin was further washed with 50 resin volumes (RV) wash buffer (50 mM sodium phosphate, 500 mM NaCl, pH 7.5), with unbound protein removed by centrifugation as above. Bound protein was eluted from the resin with 3×1 RV elution buffer (50 mM Tris, 500 mM NaCl, 10 mM reduced glutathione, pH 8.0), collecting the supernatant by centrifugation as above.
The DNA-binding competition assay was performed in black 384-well plates, with mouse full length SOX18, or SOX-HMG fragments. All experiments were performed using a fluorescently-labelled Prox1-DNA element. Controls consisted of free labelled DNA (low FP milli-Polarization index, mP), labelled DNA in presence of protein (negative control, high mP), and labelled DNA and protein in presence of competing excess of unlabelled DNA (positive control, low mP)
The DNA-binding competition assay was performed in 25 uL, in black 384-well plates, using either 30 mM HEPES (N-2-Hydroxyethylpiperazine-N′-2-Ethanesulfonic Acid) (pH 7.5, with 100 mM KCl, 40 mM NaCl, 10 mM NH4OAc, […], 2 mM MgCl2, 0.5 mM EDTA, 0.01% NP-40) for mouse full length SOX18, or Tris-NaCl (10 mM Tris pH 8.0 and 100 mM NaCl) for SOX-HMG fragments. All experiments were performed using a 40 bp double-stranded Prox1-DNA element with 5′ fluorescein amidite (FAM) label (Sigma Proligo or InVitrogen). Optimum binding levels were obtained at 200 nM of mouse full length SOX18 and 60 nM of SOX-HMG fragment, in presence of 5 nM labelled DNA. Controls consisted of free labelled DNA (low FP milli-Polarization index, mP), labelled DNA in presence of protein (negative control, high mP), and labelled DNA and protein in presence of 400 time competing excess of unlabelled DNA (positive control, low mP). Depending on compound, final DMSO concentrations ranged from 2 to 3.33% v/v. After mixing protein, DNA probe and compound, plates were sealed and briskly agitated in the dark for 5 minutes at room temperature, 10 minutes at 37° C., and 30 minutes at room temperature, before reading fluorescence polarization on a Tecan M1000Pro (λexc=485 nm, λem=525 nm). All experiments were performed in triplicates.

SOX18 = SOX18 (Mus musculus (Mouse), UniProt P43680); assay: Cell-based luciferase SOX18-dependent transactivation (Vcam1 promoter) in COS-7; settings: COS7, 24 h
Sequence of SOX18 (P43680 whole entry): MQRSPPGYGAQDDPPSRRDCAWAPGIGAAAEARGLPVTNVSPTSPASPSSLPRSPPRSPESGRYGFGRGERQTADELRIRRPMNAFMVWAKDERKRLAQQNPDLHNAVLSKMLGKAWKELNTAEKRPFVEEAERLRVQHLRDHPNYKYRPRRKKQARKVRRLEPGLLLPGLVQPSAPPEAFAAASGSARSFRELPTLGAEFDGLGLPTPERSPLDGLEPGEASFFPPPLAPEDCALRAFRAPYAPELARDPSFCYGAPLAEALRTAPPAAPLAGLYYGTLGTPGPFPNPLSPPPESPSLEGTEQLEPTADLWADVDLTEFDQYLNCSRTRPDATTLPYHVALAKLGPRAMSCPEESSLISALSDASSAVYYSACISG
Protocol: Monkey kidney fibroblast-like cells (COS-7) were cultured at 37° C., 5% CO2 in DMEM (Life technologies, 11995) with FBS, sodium pyruvate, L-glutamine, penicillin, streptomycin, non-essential amino acids and HEPES. Cells were grown in 96-well plates to 80% confluency, and transfected with mouse plasmids pGL2 Vcam 1 promoter construct (VC1889) and pSG5 Sox18, using X-tremeGENE 9 DNA transfection reagent (Roche, 06365787001) (Hosking et al., 2004, Duong et al., 2014). After 4-6 h transfection, cells were incubated with compounds in 0.5% FBS medium for another 24 h, before lysis and luciferase assay (Perkin Elmer, 6016711).

[1] = Critical micelle concentration (CMC) assay; assay type: physicochemical; settings: threshold concentration of micelle formation in 200 mM NaCl or FP buffer
Protocol: Critical micelle concentration was determined based on the incorporation of fluorescent 1,6-diphenyl-1,3,5-hexatriene (DPH) into micelles (Chattopadhyay and London, 1984). Small molecules and positive controls (neutral detergent Triton X100 and anionic detergent SDS) were cascade diluted in low binding 96-well plates from 1000 μM to 0.1 μM. Dilutions were performed in 200 mM NaCl or FP buffer. DPH was supplemented at 5 μM into black 384-well plates. Fluoresence intensity (λexc=360 nm, λem=430 nm) was measured following a 30-min incubation at room temperature, to graphically estimate CMC transition.

[2] = Cytotoxicity assay (Alamar blue), HEK293; assay type: cell-based; settings: human, HEK293 cells; HEK293, 24 h
In short: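 COS-7 cells in DMEM with 10% FBS; HepG2 and HEK293 in DMEM with 1% FBS. After 24 h plating, serial compound dilutions (0.5% DMSO final) added for 24 h at 37° C. Viability from Alamar blue 5 μM, fluorescence 560/590 nm read after 2 h.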

Sequence of full-length mouse SOX18 (P43680 whole entry): as above

SMILES	IC50 (full-length mouse SOX18) [µM]	In vitro efficacy in cell IC50 ± SD COS7 (Luc) (SOX18)	CMC [1] [µM]	IC50 (SOX18; read-out: In vitro efficacy in cell IC50 ± SD COS7 (Luc)) [µM]	CC50 at 24 h [2] [µM]
O=C(O)c1ccccc1Nc1cccc(C(F)(F)F)c1 [Flufenamic acid, reference compound]	220 ± 68.6	cytotoxicity was reached before any concentration-dependent SOX18 inhibition could be observed			
O=C(O)c1c(O)cccc1COCCc1ccccc1 [Sm5]	1100		>1000	21 ± 14	
COc1cc(C)cc(/C=C/c2ccc3ccccc3c2)c1C(=O)O [Sm34, (E)-2-methoxy-4-methyl-6-(2-(naphthalen-2-yl)vinyl)benzoic acid]					> 100
Oc1cc(CCc2ccccc2)cc(O)c1O [Sm40, 5-phenethylbenzene-1,2,3-triol]					> 100
